In article PMC8151276, “An Integrated Approach toward NanoBRET Tracers for Analysis of GPCR Ligand Engagement” (Molecules, 2021):

Legend:
Assay type in all cases: binding
[1] = biological target: T1, CCKAR (Homo sapiens, UniProt P32238); experiment: NanoBRET screen HiBiT-CCKAR in HEK293
T1 construct: purchased Promega (in-house HiBiT-GPCR construct library, NanoBRET)
T1 sequence (P32238 1-428): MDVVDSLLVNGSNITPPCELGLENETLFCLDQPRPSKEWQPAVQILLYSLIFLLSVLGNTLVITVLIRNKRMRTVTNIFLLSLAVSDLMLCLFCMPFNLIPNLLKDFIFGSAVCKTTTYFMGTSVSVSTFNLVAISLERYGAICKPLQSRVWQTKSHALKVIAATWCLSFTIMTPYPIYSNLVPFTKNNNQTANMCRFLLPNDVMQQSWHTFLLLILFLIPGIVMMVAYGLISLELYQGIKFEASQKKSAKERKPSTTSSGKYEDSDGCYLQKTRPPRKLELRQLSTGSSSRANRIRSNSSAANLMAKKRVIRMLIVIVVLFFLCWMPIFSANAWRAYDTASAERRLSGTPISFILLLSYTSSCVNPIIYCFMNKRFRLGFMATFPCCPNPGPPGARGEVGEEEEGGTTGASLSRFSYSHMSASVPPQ
Method: (§1) Each tracer candidate was screened across the entire library of HiBiT-GPCR constructs using NanoBRET as the detection modality. As depicted in Figure 4A, the specificity of interactions was evaluated through decrease in BRET due to competitive displacement of a bound tracer by excess parental compound. Each tracer was analyzed for binding to each HiBiT-GPCR fusion in the absence and in the presence of competing parental compound. Briefly, HEK293 cells were transfected with HiBiT-GPCR constructs diluted into promoterless DNA to reduce expression and maximize translocation to the cell surface. Each tracer candidate was then screened at concentrations of 1 μM and 0.1 μM across cells expressing these fusions. Cells were treated for 1.5 h with tracer either alone or in the presence of 20 μM competing parental compound (i.e., control). BRET was measured upon addition of purified LgBiT and subsequent complementation with HiBiT genetically fused to a GPCR. The specificity of interactions was assessed through a decrease in BRET signal due to competitive displacement of the bound tracer. To further gauge the robustness of these interactions, the fold response over the control (i.e., BRETtracer/BRETcontrol) was calculated. We chose a 1.5-fold response, which translates to ≥7-fold signal over noise as the minimal threshold required to score an interaction as positive. […]. Below we highlight the screening results obtained for our exemplary fluorescent tracers based on Clozapine, Amitriptyline and AZD1283.
(§2) HiBiT-GPCR DNA constructs were diluted in 10 mM Tris pH 8 to a final concentration of 0.01 μg/μL, arrayed in 96-well plates and stored at −20 °C. For transfection, HEK293 cells were suspended in Opti-MEM (without phenol red) supplemented with 2% fetal bovine serum (Seradigm) and 100 units/mL penicillin–streptomycin (Gibco) at a final concentration of 220,000 cells/mL and dispensed into white 96-well plates at 90 μL/well. Subsequent transfections and screens were carried using an Agilent Bravo Automated Liquid Handling Platform. First, the 96-well HiBiT DNA arrays were diluted 25-fold in Opti-MEM (without serum or phenol red) to a final concentration of 0.0004 μg/μL and 20 μL of the diluted DNAs were transferred into new 96-well plates. Next, promoterless carrier DNA (1 μg/μL) was diluted 25-fold (0.04 μg/μL) and then dispensed into the diluted arrays at 20 μL/well. Following brief mixing, Viafect transfection reagent (Promega) diluted 16-fold into Opti-MEM was dispensed into the plates at 40 μL/well. After mixing by pipetting, plates were incubated for 10 min on the pipetting station deck. The DNA-transfection reagent complexes were then added to plates containing cells. To facilitate the screen, 10 μL of DNA-transfection reagent complexes were added in duplicates to the top 4 and bottom 4 rows, resulting in two identical 48-well arrays per plate. Plates with transfected cells were incubated for 18–20 h at 37 °C/5% CO2. A screen of each tracer across the entire library using two different concentrations requires duplicate plates of transfected cells. Depending on the number of tracers being screened, transfections can be scaled up using the same ratios. The next day, for each tracer, four 20× screening solutions in tracer dilution buffer (Promega) were prepared: two duplicates at final concentration of 20 μM and two duplicates at a final concentration of 2 μM. A competing unmodified compound was added to one of each duplicate at a final concentration of 400 μM. The four resulting solutions were diluted 4-fold in Opti-MEM without serum or phenol red to generate 5× solutions (5 µM and 0.5 µM tracer +/− 100 μM competing compound). To screen the library, a BioTek MultiFlo FX liquid dispenser was used to dispense 22.5 µL of tracer solution to the top 4 rows and 22.5 µL tracer + competing compound solution to the 4 bottom rows. Plates were briefly mixed on an orbital shaker and incubated for 1.5 h at room temperature. […]

[2] = biological target: T2, PTGFR (Homo sapiens, UniProt P43088); experiment: NanoBRET screen HiBiT-PTGFR in HEK293
T2 construct: purchased Promega (in-house HiBiT-GPCR construct library, NanoBRET)
Method: as §1, §2

[3] = biological target: T3, NPY2R (Homo sapiens, UniProt P49146); experiment: NanoBRET screen HiBiT-NPY2R in HEK293
T3 construct: purchased Promega (in-house HiBiT-GPCR construct library, NanoBRET)
T3 sequence (P49146 1-381): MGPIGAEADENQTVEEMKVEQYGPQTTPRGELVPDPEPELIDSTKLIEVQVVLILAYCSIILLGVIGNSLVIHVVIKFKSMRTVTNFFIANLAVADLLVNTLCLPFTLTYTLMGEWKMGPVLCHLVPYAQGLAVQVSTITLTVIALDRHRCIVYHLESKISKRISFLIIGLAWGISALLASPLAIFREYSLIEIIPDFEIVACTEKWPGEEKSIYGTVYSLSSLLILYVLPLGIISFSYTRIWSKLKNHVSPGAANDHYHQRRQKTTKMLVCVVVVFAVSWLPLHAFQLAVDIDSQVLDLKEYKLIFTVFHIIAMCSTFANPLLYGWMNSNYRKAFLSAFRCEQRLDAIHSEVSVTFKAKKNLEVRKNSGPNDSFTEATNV
Method: as §1, §2

[4] = biological target: T4, LTB4R (Homo sapiens, UniProt Q15722); experiment: NanoBRET screen HiBiT-LTB4R in HEK293
T4 construct: purchased Promega (in-house HiBiT-GPCR construct library, NanoBRET)
Method: as §1, §2

T2 sequence (P43088 whole entry): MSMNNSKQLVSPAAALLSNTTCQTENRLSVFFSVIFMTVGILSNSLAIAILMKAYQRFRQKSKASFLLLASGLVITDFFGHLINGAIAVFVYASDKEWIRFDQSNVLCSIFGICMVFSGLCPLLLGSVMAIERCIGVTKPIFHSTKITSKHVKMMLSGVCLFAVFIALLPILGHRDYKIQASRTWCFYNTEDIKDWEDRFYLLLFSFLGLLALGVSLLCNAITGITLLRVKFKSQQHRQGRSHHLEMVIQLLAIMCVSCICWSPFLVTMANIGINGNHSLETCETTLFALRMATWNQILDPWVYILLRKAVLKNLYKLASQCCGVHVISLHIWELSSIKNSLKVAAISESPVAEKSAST
T4 sequence (Q15722 whole entry): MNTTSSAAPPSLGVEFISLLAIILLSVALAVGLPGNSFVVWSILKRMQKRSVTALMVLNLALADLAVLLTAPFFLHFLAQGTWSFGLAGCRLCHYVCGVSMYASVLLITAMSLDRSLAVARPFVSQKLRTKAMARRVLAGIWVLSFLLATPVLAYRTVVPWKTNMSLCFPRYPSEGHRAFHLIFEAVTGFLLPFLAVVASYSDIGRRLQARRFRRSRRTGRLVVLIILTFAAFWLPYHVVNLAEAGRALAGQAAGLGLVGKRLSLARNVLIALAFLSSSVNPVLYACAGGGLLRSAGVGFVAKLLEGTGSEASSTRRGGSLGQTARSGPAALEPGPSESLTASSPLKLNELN

| SMILES | NanoBRET Fold Response ([1]; CCKAR, 0.1μM tracer) | NanoBRET Fold Response ([1]; CCKAR, 1μM tracer) | NanoBRET Fold Response ([2]; PTGFR, 0.1μM tracer) | NanoBRET Fold Response ([2]; PTGFR, 1μM tracer) | NanoBRET Fold Response ([3]; NPY2R, 0.1μM tracer) | NanoBRET Fold Response ([3]; NPY2R, 1μM tracer) | NanoBRET Fold Response ([4]; LTB4R, 0.1μM tracer) | NanoBRET Fold Response ([4]; LTB4R, 1μM tracer) | NanoBRET Fold Response ([1]; CCKAR, tracer 0.1μM) | NanoBRET Fold Response ([1]; CCKAR, tracer 1μM) | NanoBRET Fold Response ([2]; PTGFR, tracer 0.1μM) | NanoBRET Fold Response ([2]; PTGFR, tracer 1μM) | NanoBRET Fold Response ([3]; NPY2R, tracer 0.1μM) | NanoBRET Fold Response ([3]; NPY2R, tracer 1μM) | NanoBRET Fold Response ([4]; LTB4R, tracer 1μM) | further results |
| --- | --- | --- | --- | --- | --- | --- | --- | --- | --- | --- | --- | --- | --- | --- | --- | --- |
| COc1ccc2[nH]c(-c3ccc(CNC(=O)CCOCCOCCOCCOCCNC(=O)CCc4ccc5n4[B-](F)(F)[N+]4=C(c6ccc[nH]6)C=CC4=C5)cc3)c(CCNC(C)=O)c2n1 [AzomelatoninICO9-2-NB590] |  |  |  |  |  |  |  |  |  |  |  |  |  |  |  | NanoBRET Fold Response ([1]; 0.1μM tracer): 1.06; NanoBRET Fold Response ([1]; 1μM tracer): 1.04; NanoBRET Fold Response ([2]; 0.1μM tracer): 0.97; NanoBRET Fold Response ([2]; 1μM tracer): 0.91; NanoBRET Fold Response ([3]; 0.1μM tracer): 0.99; NanoBRET Fold Response ([3]; 1μM tracer): 0.88; NanoBRET Fold Response ([4]; 0.1μM tracer): 1.07; NanoBRET Fold Response ([4]; 1μM tracer): 0.99 |
| O=C(CCOCCOCCOCCOCCNC(=O)CCc1ccc2n1[B-](F)(F)[N+]1=C(c3ccc[nH]3)C=CC1=C2)NCCCN1CCN(C2=Nc3cc(Cl)ccc3Nc3ccccc32)CC1 [Clozapine-a-2-NB590] | 1.01 | 0.85 | 1.04 | 1.02 | 0.94 | 1.11 | 1.05 | 0.94 |  |  |  |  |  |  |  |  |
| CN1CCN(C2=Nc3cc(Cl)ccc3Nc3ccc(CNC(=O)CCOCCOCCOCCOCCNC(=O)CCc4ccc5n4[B-](F)(F)[N+]4=C(c6ccc[nH]6)C=CC4=C5)cc32)CC1 [Clozapine-b-2-NB590] | 1.02 | 0.88 | 1.02 | 1.07 | 1.00 | 1.02 | 1.04 | 1.04 |  |  |  |  |  |  |  |  |
| CN1CCN(C2=Nc3cc(Cl)ccc3N(CC(=O)NCCOCCOCCOCCOCCNC(=O)CCc3ccc4n3[B-](F)(F)[N+]3=C(c5ccc[nH]5)C=CC3=C4)c3ccccc32)CC1 [Clozapine-c-2-NB590] | 1.01 | 0.74 | 1.00 | 1.10 | 1.01 | 0.99 | 1.05 | 0.95 |  |  |  |  |  |  |  |  |
| O=C(CCOCCOCCOCCOCCNC(=O)CCc1ccc2n1[B-](F)(F)[N+]1=C(c3ccc[nH]3)C=CC1=C2)NCCCN1CCN(C2=Nc3ccccc3Oc3ccc(Cl)cc32)CC1 [Loxapine-a-2-NB590] |  |  |  |  |  |  |  |  | 1.02 | 0.99 | 1.03 | 1.02 | 1.02 | 1.17 | 0.96 | NanoBRET Fold Response ([4]; LTB4R, tracer 0.1μM): 1.05 |
| COc1ccccc1N1CCN(CCCCN2C(=O)c3ccc(CNC(=O)CCOCCOCCOCCOCCNC(=O)CCc4ccc5n4[B-](F)(F)[N+]4=C(c6ccc[nH]6)C=CC4=C5)cc3C2=O)CC1 [NAN-190-2-NB590] |  |  |  |  |  |  |  |  | 0.98 | 0.96 | 1.00 | 1.00 | 1.00 | 0.92 | 0.96 |  |
